From BindingDB's records for patent US12398120 (Bayer Aktiengesellschaft, 2025)

Tests used:
[1] = target: A disintegrin and metalloproteinase with thrombospondin motifs 7 (Homo sapiens, UniProt Q9UKP4); assay: Assay for ADAMTS-7 Enzymatic Activity and Testing of Inhibitory Compounds
Experimental: An additional carboxyl glutamic acid was added after the QXL520 quencher to increase substrate solubility. […] IC50 values were calculated from percentage of inhibition of ADAMTS-7 activity as a function of test compound concentration.

[2] = target: T1, A disintegrin and metalloproteinase with thrombospondin motifs 4 (Homo sapiens, UniProt O75173)
T1 sequence (O75173 whole entry): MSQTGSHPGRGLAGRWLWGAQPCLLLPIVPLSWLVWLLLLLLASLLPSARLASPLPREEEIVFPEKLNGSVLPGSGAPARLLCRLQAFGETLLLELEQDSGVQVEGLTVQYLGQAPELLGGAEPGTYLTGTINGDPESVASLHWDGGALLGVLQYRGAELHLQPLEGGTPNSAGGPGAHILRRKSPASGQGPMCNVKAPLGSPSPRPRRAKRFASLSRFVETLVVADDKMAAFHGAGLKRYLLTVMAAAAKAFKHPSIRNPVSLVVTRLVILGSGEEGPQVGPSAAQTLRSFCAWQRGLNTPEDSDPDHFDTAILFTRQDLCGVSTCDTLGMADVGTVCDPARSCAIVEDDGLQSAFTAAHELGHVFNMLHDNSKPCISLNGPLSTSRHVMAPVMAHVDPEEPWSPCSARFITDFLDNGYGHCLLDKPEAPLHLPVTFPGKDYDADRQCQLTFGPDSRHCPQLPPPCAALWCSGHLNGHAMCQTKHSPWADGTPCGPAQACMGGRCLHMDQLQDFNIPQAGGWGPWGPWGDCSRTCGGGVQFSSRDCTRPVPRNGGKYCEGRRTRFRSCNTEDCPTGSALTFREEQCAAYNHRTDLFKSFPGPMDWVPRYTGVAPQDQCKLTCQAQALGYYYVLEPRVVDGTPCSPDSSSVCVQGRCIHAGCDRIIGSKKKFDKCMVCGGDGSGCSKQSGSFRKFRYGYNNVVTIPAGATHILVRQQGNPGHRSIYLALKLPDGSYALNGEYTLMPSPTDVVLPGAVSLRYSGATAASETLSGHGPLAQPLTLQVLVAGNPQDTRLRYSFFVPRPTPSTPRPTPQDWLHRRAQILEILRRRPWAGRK

Sequence of A disintegrin and metalloproteinase with thrombospondin motifs 7 (Q9UKP4 whole entry): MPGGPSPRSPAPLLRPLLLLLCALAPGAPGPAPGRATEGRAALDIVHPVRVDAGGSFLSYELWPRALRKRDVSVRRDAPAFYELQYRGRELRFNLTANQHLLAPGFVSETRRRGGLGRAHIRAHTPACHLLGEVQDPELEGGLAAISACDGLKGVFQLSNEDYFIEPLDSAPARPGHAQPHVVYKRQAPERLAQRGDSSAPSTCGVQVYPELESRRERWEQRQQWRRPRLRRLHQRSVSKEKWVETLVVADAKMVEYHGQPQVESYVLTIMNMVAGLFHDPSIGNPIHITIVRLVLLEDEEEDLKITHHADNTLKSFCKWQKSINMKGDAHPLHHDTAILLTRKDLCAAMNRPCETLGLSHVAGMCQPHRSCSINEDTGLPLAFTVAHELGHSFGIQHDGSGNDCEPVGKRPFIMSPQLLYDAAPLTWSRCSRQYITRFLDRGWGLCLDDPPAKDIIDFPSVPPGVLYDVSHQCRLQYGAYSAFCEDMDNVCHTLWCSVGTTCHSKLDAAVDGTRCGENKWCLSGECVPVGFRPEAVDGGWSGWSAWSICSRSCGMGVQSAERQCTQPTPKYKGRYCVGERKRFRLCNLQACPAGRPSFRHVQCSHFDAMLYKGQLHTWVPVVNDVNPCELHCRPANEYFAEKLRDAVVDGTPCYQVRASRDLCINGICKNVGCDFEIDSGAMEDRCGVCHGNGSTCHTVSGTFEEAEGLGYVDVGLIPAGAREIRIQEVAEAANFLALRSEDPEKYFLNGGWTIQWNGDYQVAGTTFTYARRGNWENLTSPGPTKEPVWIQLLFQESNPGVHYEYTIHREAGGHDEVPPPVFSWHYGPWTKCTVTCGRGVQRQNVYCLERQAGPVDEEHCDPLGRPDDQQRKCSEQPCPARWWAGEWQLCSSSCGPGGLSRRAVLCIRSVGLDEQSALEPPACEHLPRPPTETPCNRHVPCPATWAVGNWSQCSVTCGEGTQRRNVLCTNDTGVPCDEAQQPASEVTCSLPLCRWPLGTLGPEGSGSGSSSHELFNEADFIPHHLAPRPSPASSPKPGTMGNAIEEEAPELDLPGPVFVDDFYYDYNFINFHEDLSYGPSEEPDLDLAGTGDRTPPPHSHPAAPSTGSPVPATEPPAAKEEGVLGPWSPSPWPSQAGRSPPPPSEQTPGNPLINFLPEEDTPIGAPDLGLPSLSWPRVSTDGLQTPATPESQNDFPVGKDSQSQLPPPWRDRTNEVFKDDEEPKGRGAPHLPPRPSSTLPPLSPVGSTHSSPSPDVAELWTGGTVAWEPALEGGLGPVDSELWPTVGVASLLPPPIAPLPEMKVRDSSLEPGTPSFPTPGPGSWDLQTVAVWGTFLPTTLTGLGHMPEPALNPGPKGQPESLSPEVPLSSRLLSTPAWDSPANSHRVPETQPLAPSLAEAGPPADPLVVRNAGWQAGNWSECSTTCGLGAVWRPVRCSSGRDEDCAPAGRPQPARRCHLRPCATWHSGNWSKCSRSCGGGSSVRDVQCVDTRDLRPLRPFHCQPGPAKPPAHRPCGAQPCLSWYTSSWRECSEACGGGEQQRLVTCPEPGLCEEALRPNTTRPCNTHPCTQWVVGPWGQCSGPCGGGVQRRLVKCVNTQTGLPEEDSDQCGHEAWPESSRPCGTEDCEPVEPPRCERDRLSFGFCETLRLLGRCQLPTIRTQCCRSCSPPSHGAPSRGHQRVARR

| IC50 [1] | IC50 [2] | SMILES |
| --- | --- | --- |
| 8.97 nM | 37500 nM | CC(C)C1(CNC(=O)c2ccc(F)c(F)c2-c2ccc(C(F)(F)F)cc2)NC(=O)NC1=O (single isomer, unassigned) [US12398120, Example 214] |
| 4.2 nM | 1700 nM | Cc1ccc(-c2cc(F)ccc2C(=O)NCC2(c3nccn3C)NC(=O)NC2=O)cc1 (single isomer, unassigned) [US12398120, Example 147] |
| 45 nM | 8100 nM | Cc1ccc(-c2cc(F)ccc2C(=O)NC[C@@]2(C3CC3)NC(=O)NC2=O)cc1 [US12398120, Example 100] |
